Where two headings read alike, the source gives them in different places.
What was measured:
Type in all cases: in vivo
[1] = test system: barnyardgrass (Echinochloa crus-galli); experiment: Test A postemergence; conditions: Echinochloa crus-galli, post-emergence, 240 h; for pest or weed control at 125 g/ha: 125 g ai/ha, read-out: Barnyardgrass plant response rating (0 to 100 scale, 0 no effect, 100 complete control)
Outline: (§1)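 Preemergence directed soil spray on seeded pots, or postemergence application to plants 2–10 cm, one- to two-leaf. Solvent mixture non-phytotoxic, with surfactant. Scored ~10 d later, visually, 0–100 vs untreated.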

[2] = test system: giant foxtail (Setaria faberii); experiment: Test A postemergence; conditions: Setaria faberi, post-emergence, 240 h; for pest or weed control at 125 g/ha: 125 g ai/ha
Outline: as §1

[3] = test system: pigweed (Amaranthus retroflexus); experiment: Test A postemergence; conditions: Amaranthus retroflexus, post-emergence, 240 h; for pest or weed control at 125 g/ha: 125 g ai/ha
Outline: as §1

[4] = test system: ryegrass, Italian (Italian ryegrass, Lolium multiflorum); experiment: Test A postemergence; conditions: Lolium multiflorum, post-emergence, 240 h; for pest or weed control at 125 g/ha: 125 g ai/ha
Outline: as §1

[5] = test system: ragweed (common ragweed, Ambrosia elatior); experiment: Test A postemergence; conditions: Ambrosia artemisiifolia, post-emergence, 240 h; for pest or weed control at 125 g/ha: 125 g ai/ha
Outline: as §1

[6] = test system: corn (Zea mays); experiment: Test A postemergence; conditions: Zea mays, post-emergence, 240 h; for plant injury at 125 g/ha: 125 g ai/ha
Outline: as §1

[7] = test system: Galium (catchweed bedstraw, Galium aparine); experiment: Test A postemergence; conditions: Galium, post-emergence, 240 h; for pest or weed control at 125 g/ha: 125 g ai/ha
Outline: as §1

[8] = test system: Kochia (Kochia scoparia); experiment: Test A postemergence; conditions: Bassia scoparia, post-emergence, 240 h; for pest or weed control at 125 g/ha: 125 g ai/ha
Outline: as §1

[9] = test system: wheat (Triticum aestivum); experiment: Test A postemergence; conditions: Triticum aestivum, post-emergence, 240 h; for plant injury at 125 g/ha: 125 g ai/ha
Outline: as §1

[10] = test system: blackgrass (Alopecurus myosuroides); experiment: Test A postemergence; conditions: Alopecurus myosuroides, post-emergence, 240 h; for pest or weed control at 125 g/ha: 125 g ai/ha
Outline: as §1

[11] = test system: barnyardgrass (Echinochloa crus-galli); experiment: Test B flooded paddy test; conditions: Echinochloa crus-galli, Flood, 250 g ai/ha
Outline: (§2)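 Plants at 2-leaf stage flooded to 3 cm above soil, with compounds applied directly to paddy water and that depth maintained. Plants kept in greenhouse 13–15 d. Visual rating versus controls on a 0 (no effect) to 100 (complete control) scale.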

[12] = test system: rice (Oryra sativa); experiment: Test B flooded paddy test; conditions: Oryza sativa, Flood, 250 g ai/ha
Outline: as §2

[13] = test system: sedge, umbrella (small-flower umbrella sedge, Cyperus difformis); experiment: Test B flooded paddy test; conditions: Cyperus difformis, Flood, 250 g ai/ha
Outline: as §2

[14] = test system: ducksalad (Heteranthera limosa); experiment: Test B flooded paddy test; conditions: Heteranthera limosa, Flood, 250 g ai/ha
Outline: as §2

Work on `CN1CC[C@H](c2cccc(OC(F)(F)F)c2)[C@@H](C(=O)Nc2cccc(F)c2F)C1=O` [Compound 807] yielded a pest or weed control at 125 g/ha ([1]; postemergence, visual injury rating after approximately 10 d) of 80%, a pest or weed control at 31 g/ha ([1]; Postemergence, 31 g ai/ha, visual injury after approx. 10 d, 0 to 100 scale, 0 no effect, 100 complete control, read-out: Plant response rating, Barnyardgrass) of 70% and a pest or weed control at 125 g/ha ([2]; postemergence, visual injury rating after approximately 10 d, read-out: Foxtail, Giant plant response rating (0 to 100 scale, 0 no effect, 100 complete control)) of 80%. It also gave a pest or weed control at 31 g/ha ([2]; Postemergence, 31 g ai/ha, visual injury after approx. 10 d, 0 to 100 scale, 0 no effect, 100 complete control, read-out: Plant response rating, Foxtail, Giant) of 70%, a pest or weed control at 125 g/ha ([3]; postemergence, visual injury rating after approximately 10 d, read-out: Pigweed plant response rating (0 to 100 scale, 0 no effect, 100 complete control)) of 0% and a pest or weed control at 31 g/ha ([3]; Postemergence, 31 g ai/ha, visual injury after approx. 10 d, 0 to 100 scale, 0 no effect, 100 complete control, read-out: Plant response rating, Pigweed) of 0%. It also gave a pest or weed control at 125 g/ha ([4]; postemergence, visual injury rating after approximately 10 d, read-out: Ryegrass, Italian plant response rating (0 to 100 scale, 0 no effect, 100 complete control)) of 0%, a pest or weed control at 31 g/ha ([4]; Postemergence, 31 g ai/ha, visual injury after approx. 10 d, 0 to 100 scale, 0 no effect, 100 complete control, read-out: Plant response rating, Ryegrass, Italian) of 0% and a pest or weed control at 125 g/ha ([5]; postemergence, visual injury rating after approximately 10 d, read-out: Ragweed plant response rating (0 to 100 scale, 0 no effect, 100 complete control)) of 0%. The pest or weed control at 31 g/ha ([5]; Postemergence, 31 g ai/ha, visual injury after approx. 10 d, 0 to 100 scale, 0 no effect, 100 complete control, read-out: Plant response rating, Ragweed) was 0%, the plant injury at 125 g/ha ([6]; postemergence, visual injury rating after approximately 10 d, read-out: Corn plant response rating (0 to 100 scale, 0 no effect, 100 complete control)) was 70% and the Corn plant response rating (crop injury, 0 = no effect, 100 = complete kill) at 31 g/ha ([6]; Postemergence, 31 g ai/ha, visual injury after approx. 10 d, 0 to 100 scale, 0 no effect, 100 complete control) was 0%. It also gave a pest or weed control at 125 g/ha ([7]; postemergence, visual injury rating after approximately 10 d, read-out: Galium plant response rating (0 to 100 scale, 0 no effect, 100 complete control)) of 0%, a pest or weed control at 31 g/ha ([7]; Postemergence, 31 g ai/ha, visual injury after approx. 10 d, 0 to 100 scale, 0 no effect, 100 complete control, read-out: Plant response rating, Galium) of 0% and a pest or weed control at 125 g/ha ([8]; postemergence, visual injury rating after approximately 10 d, read-out: Kochia plant response rating (0 to 100 scale, 0 no effect, 100 complete control)) of 0%. The pest or weed control at 31 g/ha ([8]; Postemergence, 31 g ai/ha, visual injury after approx. 10 d, 0 to 100 scale, 0 no effect, 100 complete control, read-out: Plant response rating, Kochia) was 0%, the plant injury at 125 g/ha ([9]; postemergence, visual injury rating after approximately 10 d, read-out: Wheat plant response rating (0 to 100 scale, 0 no effect, 100 complete control)) was 30% and the plant injury at 31 g/ha ([9]; Postemergence, 31 g ai/ha, visual injury after approx. 10 d, 0 to 100 scale, 0 no effect, 100 complete control, read-out: Plant response rating, Wheat) was 0%. It also gave a pest or weed control at 125 g/ha ([10]; postemergence, visual injury rating after approximately 10 d, read-out: Blackgrass plant response rating (0 to 100 scale, 0 no effect, 100 complete control)) of 0%, a pest or weed control at 31 g/ha ([10]; Postemergence, 31 g ai/ha, visual injury after approx. 10 d, 0 to 100 scale, 0 no effect, 100 complete control, read-out: Plant response rating, Blackgrass) of 0% and a pest or weed control at 250 g/ha ([11]; scale of 0 to 100 where 0 is no effect and 100 is complete control, read-out: Barnyardgrass plant response rating) of 95%. It also gave a pest or weed control at 250 g/ha ([12]; scale of 0 to 100 where 0 is no effect and 100 is complete control, read-out: Rice plant response rating) of 0%, a pest or weed control at 250 g/ha ([13]; scale of 0 to 100 where 0 is no effect and 100 is complete control, read-out: Sedge, Umbrella plant response rating) of 0% and a pest or weed control at 250 g/ha ([14]; scale of 0 to 100 where 0 is no effect and 100 is complete control, read-out: Ducksalad plant response rating) of 100%.
Compound `C=CN1C[C@H](c2ccc(C)c(F)c2)[C@@H](C(=O)Nc2cccc(F)c2F)C1=O` (racemic) [Compound 1332] has a pest or weed control at 125 g/ha ([1]; Postemergence, visual rating about 10 d after treatment) of 50%, a pest or weed control at 500 g/ha ([1]; Postemergence, 500 g ai/ha, visual injury, 0 to 100 scale (0 no effect, 100 complete control), approx. 10 d, read-out: Plant response rating, Barnyardgrass) of 60% and a pest or weed control at 125 g/ha ([2]; Postemergence, visual rating about 10 d after treatment, read-out: Foxtail, Giant plant response rating (0 to 100 scale)) of 40%. The pest or weed control at 500 g/ha ([2]; Postemergence, 500 g ai/ha, visual injury, 0 to 100 scale (0 no effect, 100 complete control), approx. 10 d, read-out: Plant response rating, Foxtail, Giant) was 60%, the pest or weed control at 125 g/ha ([3]; Postemergence, visual rating about 10 d after treatment, read-out: Pigweed plant response rating (0 to 100 scale)) was 0% and the pest or weed control at 500 g/ha ([3]; Postemergence, 500 g ai/ha, visual injury, 0 to 100 scale (0 no effect, 100 complete control), approx. 10 d, read-out: Plant response rating, Pigweed) was 0%. It also gave a pest or weed control at 125 g/ha ([4]; Postemergence, visual rating about 10 d after treatment, read-out: Ryegrass, Italian plant response rating (0 to 100 scale)) of 0%, a pest or weed control at 500 g/ha ([4]; Postemergence, 500 g ai/ha, visual injury, 0 to 100 scale (0 no effect, 100 complete control), approx. 10 d, read-out: Plant response rating, Ryegrass, Italian) of 0% and a pest or weed control at 125 g/ha ([5]; Postemergence, visual rating about 10 d after treatment, read-out: Ragweed plant response rating (0 to 100 scale)) of 0%. It also gave a pest or weed control at 500 g/ha ([5]; Postemergence, 500 g ai/ha, visual injury, 0 to 100 scale (0 no effect, 100 complete control), approx. 10 d, read-out: Plant response rating, Ragweed) of 20%, a plant injury at 125 g/ha ([6]; Postemergence, visual rating about 10 d after treatment, read-out: Corn plant response rating (0 to 100 scale)) of 0% and a Corn plant response rating (crop injury, 0 = no effect, 100 = complete kill) at 500 g/ha ([6]; Postemergence, 500 g ai/ha, visual injury, 0 to 100 scale (0 no effect, 100 complete control), approx. 10 d) of 0%. It also gave a pest or weed control at 125 g/ha ([7]; Postemergence, visual rating about 10 d after treatment, read-out: Galium plant response rating (0 to 100 scale)) of 0%, a pest or weed control at 500 g/ha ([7]; Postemergence, 500 g ai/ha, visual injury, 0 to 100 scale (0 no effect, 100 complete control), approx. 10 d, read-out: Plant response rating, Galium) of 20% and a pest or weed control at 125 g/ha ([8]; Postemergence, visual rating about 10 d after treatment, read-out: Kochia plant response rating (0 to 100 scale)) of 0%. It also gave a pest or weed control at 500 g/ha ([8]; Postemergence, 500 g ai/ha, visual injury, 0 to 100 scale (0 no effect, 100 complete control), approx. 10 d, read-out: Plant response rating, Kochia) of 0%, a plant injury at 125 g/ha ([9]; Postemergence, visual rating about 10 d after treatment, read-out: Wheat plant response rating (0 to 100 scale)) of 0% and a plant injury at 500 g/ha ([9]; Postemergence, 500 g ai/ha, visual injury, 0 to 100 scale (0 no effect, 100 complete control), approx. 10 d, read-out: Plant response rating, Wheat) of 20%. The pest or weed control at 125 g/ha ([10]; Postemergence, visual rating about 10 d after treatment, read-out: Blackgrass plant response rating (0 to 100 scale)) was 0%, the pest or weed control at 500 g/ha ([10]; Postemergence, 500 g ai/ha, visual injury, 0 to 100 scale (0 no effect, 100 complete control), approx. 10 d, read-out: Plant response rating, Blackgrass) was 30% and the pest or weed control at 250 g/ha ([11]; 360 h, visually evaluated after 13 to 15 d, read-out: Plant response rating, Barnyardgrass (0 to 100 scale where 0 is no effect and 100 is complete control)) was 0%. It also gave a pest or weed control at 250 g/ha ([12]; 360 h, visually evaluated after 13 to 15 d, read-out: Plant response rating, Rice (0 to 100 scale where 0 is no effect and 100 is complete control)) of 0%, a pest or weed control at 250 g/ha ([13]; 360 h, visually evaluated after 13 to 15 d, read-out: Plant response rating, Sedge, Umbrella (0 to 100 scale where 0 is no effect and 100 is complete control)) of 0% and a pest or weed control at 250 g/ha ([14]; 360 h, visually evaluated after 13 to 15 d, read-out: Plant response rating, Ducksalad (0 to 100 scale where 0 is no effect and 100 is complete control)) of 100%.

Source: patent publication US12077503B2, “Substituted cyclic amides and their use as herbicides” (FMC CORPORATION, priority 2015, dated 2024)
